According to the NIST ThermoML archive (doi:10.1016/j.jct.2016.07.032):

Legend:
[1] = xn = mol fraction of the nth substance listed; settings: 101.3 kPa, Liquid; for speed of sound: Frequency=3 MHz, Sing-around technique in a fixed-path interferometer; for mass density: Vibrating tube method
[2] = refractive index (Na D-line) (dimensionless); xn = mol fraction of the nth substance listed; settings: 101.3 kPa, Liquid, Standard Abbe refractometry

CCOc1ccccc1 [ethoxybenzene] + C1CCOC1
Settings | mass density, 298 K [kg/m3] | mass density, 303 K [kg/m3] | mass density, 308 K [kg/m3] | refractive index, 298 K | refractive index, 303 K | refractive index, 308 K | speed of sound, 298 K [m/s] | speed of sound, 303 K [m/s] | speed of sound, 308 K [m/s]
[1], x1 = 0.031 | 886 | 883 | 878 | – | – | – | 1279 | 1255 | 1230
[1], x1 = 0.072 | 892 | 888 | 883 | – | – | – | 1281 | 1256 | 1231
[1], x1 = 0.117 | 897 | 893 | 888 | – | – | – | 1283 | 1258 | 1233
[1], x1 = 0.197 | 905 | 901 | 897 | – | – | – | 1287 | 1262 | 1237
[1], x1 = 0.246 | 910 | 906 | 902 | – | – | – | 1289 | 1265 | 1241
[1], x1 = 0.326 | 918 | 913 | 909 | – | – | – | 1295 | 1271 | 1247
[1], x1 = 0.492 | 931 | 927 | 922 | – | – | – | 1310 | 1287 | 1264
[1], x1 = 0.695 | 944 | 940 | 935 | – | – | – | 1332 | 1309 | 1287
[1], x1 = 0.899 | 955 | 951 | 946 | – | – | – | 1356 | 1334 | 1314
[1], x1 = 1 | 960 | 955 | 951 | – | – | – | 1369 | 1349 | 1329
[2], x1 = 0.031 | – | – | – | 1.41 | 1.408 | 1.405 | – | – | –
[2], x1 = 0.072 | – | – | – | 1.417 | 1.414 | 1.412 | – | – | –
[2], x1 = 0.117 | – | – | – | 1.424 | 1.422 | 1.419 | – | – | –
[2], x1 = 0.197 | – | – | – | 1.436 | 1.433 | 1.43 | – | – | –
[2], x1 = 0.246 | – | – | – | 1.443 | 1.44 | 1.437 | – | – | –
[2], x1 = 0.326 | – | – | – | 1.453 | 1.45 | 1.447 | – | – | –
[2], x1 = 0.492 | – | – | – | 1.472 | 1.469 | 1.466 | – | – | –
[2], x1 = 0.695 | – | – | – | 1.49 | 1.487 | 1.483 | – | – | –
[2], x1 = 0.899 | – | – | – | 1.502 | 1.499 | 1.494 | – | – | –
[2], x1 = 1 | – | – | – | 1.505 | 1.503 | 1.499 | – | – | –

CCOc1ccccc1 [ethoxybenzene] + CN1CCCC1=O
Settings | mass density, 298 K [kg/m3] | mass density, 303 K [kg/m3] | mass density, 308 K [kg/m3] | refractive index, 298 K | refractive index, 303 K | refractive index, 308 K | speed of sound, 298 K [m/s] | speed of sound, 303 K [m/s] | speed of sound, 308 K [m/s]
[1], x1 = 0.041 | 1023 | 1019 | 1015 | – | – | – | 1534 | 1515 | 1497
[1], x1 = 0.122 | 1018 | 1014 | 1010 | – | – | – | 1513 | 1495 | 1477
[1], x1 = 0.201 | 1013 | 1009 | 1005 | – | – | – | 1495 | 1477 | 1460
[1], x1 = 0.273 | 1008 | 1004 | 1000 | – | – | – | 1480 | 1462 | 1445
[1], x1 = 0.37 | 1001 | 997 | 993 | – | – | – | 1460 | 1443 | 1427
[1], x1 = 0.504 | 992 | 988 | 983 | – | – | – | 1437 | 1420 | 1403
[1], x1 = 0.628 | 983 | 979 | 975 | – | – | – | 1418 | 1400 | 1383
[1], x1 = 0.709 | 978 | 974 | 969 | – | – | – | 1406 | 1388 | 1370
[1], x1 = 0.822 | 971 | 966 | 962 | – | – | – | 1391 | 1372 | 1354
[1], x1 = 1 | 960 | 955 | 951 | – | – | – | 1369 | 1349 | 1329
[2], x1 = 0.041 | – | – | – | 1.469 | 1.468 | 1.466 | – | – | –
[2], x1 = 0.122 | – | – | – | 1.474 | 1.472 | 1.469 | – | – | –
[2], x1 = 0.201 | – | – | – | 1.478 | 1.475 | 1.473 | – | – | –
[2], x1 = 0.273 | – | – | – | 1.481 | 1.479 | 1.476 | – | – | –
[2], x1 = 0.37 | – | – | – | 1.485 | 1.483 | 1.48 | – | – | –
[2], x1 = 0.504 | – | – | – | 1.491 | 1.488 | 1.485 | – | – | –
[2], x1 = 0.628 | – | – | – | 1.495 | 1.492 | 1.489 | – | – | –
[2], x1 = 0.709 | – | – | – | 1.498 | 1.495 | 1.491 | – | – | –
[2], x1 = 0.822 | – | – | – | 1.501 | 1.498 | 1.495 | – | – | –
[2], x1 = 1 | – | – | – | 1.505 | 1.503 | 1.499 | – | – | –

CCOc1ccccc1 [ethoxybenzene] + CN(C)C=O
Settings | mass density, 298 K [kg/m3] | mass density, 303 K [kg/m3] | mass density, 308 K [kg/m3] | refractive index, 298 K | refractive index, 303 K | refractive index, 308 K | speed of sound, 298 K [m/s] | speed of sound, 303 K [m/s] | speed of sound, 308 K [m/s]
[1], x1 = 0.031 | 946 | 941 | 936 | – | – | – | 1452 | 1432 | 1415
[1], x1 = 0.091 | 948 | 943 | 939 | – | – | – | 1443 | 1424 | 1406
[1], x1 = 0.153 | 950 | 945 | 941 | – | – | – | 1435 | 1415 | 1398
[1], x1 = 0.223 | 952 | 947 | 943 | – | – | – | 1427 | 1407 | 1389
[1], x1 = 0.304 | 954 | 949 | 945 | – | – | – | 1418 | 1398 | 1380
[1], x1 = 0.463 | 956 | 952 | 948 | – | – | – | 1403 | 1383 | 1365
[1], x1 = 0.556 | 957 | 953 | 949 | – | – | – | 1396 | 1376 | 1357
[1], x1 = 0.642 | 958 | 954 | 949 | – | – | – | 1390 | 1370 | 1350
[1], x1 = 0.8 | 959 | 955 | 950 | – | – | – | 1379 | 1360 | 1340
[1], x1 = 1 | 960 | 955 | 951 | – | – | – | 1369 | 1349 | 1329
[2], x1 = 0.031 | – | – | – | 1.431 | 1.43 | 1.427 | – | – | –
[2], x1 = 0.091 | – | – | – | 1.437 | 1.435 | 1.432 | – | – | –
[2], x1 = 0.153 | – | – | – | 1.442 | 1.44 | 1.437 | – | – | –
[2], x1 = 0.223 | – | – | – | 1.448 | 1.446 | 1.442 | – | – | –
[2], x1 = 0.304 | – | – | – | 1.455 | 1.452 | 1.449 | – | – | –
[2], x1 = 0.463 | – | – | – | 1.468 | 1.465 | 1.461 | – | – | –
[2], x1 = 0.556 | – | – | – | 1.475 | 1.471 | 1.468 | – | – | –
[2], x1 = 0.642 | – | – | – | 1.481 | 1.478 | 1.474 | – | – | –
[2], x1 = 0.8 | – | – | – | 1.493 | 1.489 | 1.485 | – | – | –
[2], x1 = 1 | – | – | – | 1.505 | 1.503 | 1.499 | – | – | –
